Experimental data taken from ChEMBL document CHEMBL3885881, “DrugMatrix”.

Species on record: Rattus norvegicus
Experiment: DrugMatrix - Regimen: Daily Repeat
Assay type: toxicity, organism-based, Sprague-Dawley
Design: regimen Daily Repeat, gender Male, age 6-8 weeks
Settings: in vivo, po, route oral GAVAGE, vehicle .5 % CMC; for BASOPHIL / EOSINOPHIL / ERYTHROCYTE COUNT / HEMATOCRIT / HEMOGLOBIN / LEUKOCYTE COUNT / LYMPHOCYTE / MEAN CORPUSCULAR HEMOGLOBIN / MEAN CORPUSCULAR HEMOGLOBIN CONCENTRATION / MEAN CORPUSCULAR VOLUME / MONOCYTE / NEUTROPHIL / PLATELET COUNT: tissue Blood; for ALANINE AMINOTRANSFERASE / ALBUMIN / ALKALINE PHOSPHATASE / ASPARTATE AMINOTRANSFERASE / BLOOD UREA NITROGEN / CHLORIDE / CHOLESTEROL / CREATINE PHOSPHOKINASE / CREATININE / GLUCOSE / PHOSPHORUS / POTASSIUM / SODIUM / TOTAL BILIRUBIN / TOTAL PROTEIN: tissue Plasma
[1] = 0 mg/kg, 72 h, dose level Control, time 3 day
[2] = 0 mg/kg, 120 h, dose level Control, time 5 day
[3] = 32 mg/kg, 72 h, dose level Low, time 3 day
[4] = 32 mg/kg, 120 h, dose level Low, time 5 day

SMILES: CC[C@H]1OC(=O)[C@H](C)[C@@H](O[C@H]2C[C@@](C)(OC)[C@@H](O)[C@H](C)O2)[C@H](C)[C@@H](O[C@@H]2O[C@H](C)C[C@H](N(C)C)[C@H]2O)[C@](C)(O)C[C@@H](C)/C(=N\OCOCCOC)[C@H](C)[C@@H](O)[C@]1(C)O [ROXITHROMYCIN]
- BASOPHIL [1]: 1.52%
- EOSINOPHIL [1]: 0.98%
- ERYTHROCYTE COUNT [1]: 6.96 x10E6/uL
- HEMATOCRIT [1]: 44.65%
- HEMOGLOBIN [1]: 13.62 G/DL
- LEUKOCYTE COUNT [1]: 9.83 x10E3/uL
- LYMPHOCYTE [1]: 76.48%
- MEAN CORPUSCULAR HEMOGLOBIN [1]: 19.57 pg
- MEAN CORPUSCULAR HEMOGLOBIN CONCENTRATION [1]: 30.47 G/DL
- MEAN CORPUSCULAR VOLUME [1]: 64.22 fL
- MONOCYTE [1]: 2.13%
- NEUTROPHIL [1]: 18.6%
- PLATELET COUNT [1]: 1217.17 x10E3/uL
- ALANINE AMINOTRANSFERASE [1]: 41 u/L
- ALBUMIN [1]: 3.77 G/DL
- ALKALINE PHOSPHATASE [1]: 411.83 u/L
- ASPARTATE AMINOTRANSFERASE [1]: 62.83 u/L
- BLOOD UREA NITROGEN [1]: 15.17 mg/dL
- CHLORIDE [1]: 104.33 MEQ/L
- CHOLESTEROL [1]: 71.17 mg/dL
- CREATINE PHOSPHOKINASE [1]: 123.5 u/L
- CREATININE [1]: 0.55 mg/dL
- GLUCOSE [1]: 182.67 mg/dL
- PHOSPHORUS [1]: 11.23 mg/dL
- POTASSIUM [1]: 7.03 MEQ/L
- SODIUM [1]: 148 MEQ/L
- TOTAL BILIRUBIN [1]: 0.57 mg/dL
- TOTAL PROTEIN [1]: 6.85 G/DL
- BASOPHIL [2]: 1.35%
- EOSINOPHIL [2]: 0.43%
- ERYTHROCYTE COUNT [2]: 6.96 x10E6/uL
- HEMATOCRIT [2]: 44.35%
- HEMOGLOBIN [2]: 13.98 G/DL
- LEUKOCYTE COUNT [2]: 9.45 x10E3/uL
- LYMPHOCYTE [2]: 80.83%
- MEAN CORPUSCULAR HEMOGLOBIN [2]: 20.1 pg
- MEAN CORPUSCULAR HEMOGLOBIN CONCENTRATION [2]: 31.52 G/DL
- MEAN CORPUSCULAR VOLUME [2]: 63.72 fL
- MONOCYTE [2]: 2.37%
- NEUTROPHIL [2]: 14.05%
- PLATELET COUNT [2]: 1298 x10E3/uL
- ALANINE AMINOTRANSFERASE [2]: 42.17 u/L
- ALBUMIN [2]: 3.77 G/DL
- ALKALINE PHOSPHATASE [2]: 419 u/L
- ASPARTATE AMINOTRANSFERASE [2]: 66.67 u/L
- BLOOD UREA NITROGEN [2]: 16.67 mg/dL
- CHLORIDE [2]: 103.17 MEQ/L
- CHOLESTEROL [2]: 66.33 mg/dL
- CREATINE PHOSPHOKINASE [2]: 148.33 u/L
- CREATININE [2]: 0.58 mg/dL
- GLUCOSE [2]: 196.83 mg/dL
- PHOSPHORUS [2]: 11.8 mg/dL
- POTASSIUM [2]: 6.47 MEQ/L
- SODIUM [2]: 148.33 MEQ/L
- TOTAL BILIRUBIN [2]: 0.53 mg/dL
- TOTAL PROTEIN [2]: 6.77 G/DL
- BASOPHIL [3]: 1.33%
- EOSINOPHIL [3]: 0.27%
- ERYTHROCYTE COUNT [3]: 7.39 x10E6/uL
- HEMATOCRIT [3]: 47.23%
- HEMOGLOBIN [3]: 14.73 G/DL
- LEUKOCYTE COUNT [3]: 12.3 x10E3/uL
- LYMPHOCYTE [3]: 88.63%
- MEAN CORPUSCULAR HEMOGLOBIN [3]: 19.9 pg
- MEAN CORPUSCULAR HEMOGLOBIN CONCENTRATION [3]: 31.13 G/DL
- MEAN CORPUSCULAR VOLUME [3]: 63.97 fL
- MONOCYTE [3]: 1.7%
- NEUTROPHIL [3]: 7.6%
- PLATELET COUNT [3]: 1462 x10E3/uL
- ALANINE AMINOTRANSFERASE [3]: 37.67 u/L
- ALBUMIN [3]: 3.7 G/DL
- ALKALINE PHOSPHATASE [3]: 340.33 u/L
- ASPARTATE AMINOTRANSFERASE [3]: 58.33 u/L
- BLOOD UREA NITROGEN [3]: 12.33 mg/dL
- CHLORIDE [3]: 104.67 MEQ/L
- CHOLESTEROL [3]: 59.67 mg/dL
- CREATINE PHOSPHOKINASE [3]: 128 u/L
- CREATININE [3]: 0.57 mg/dL
- GLUCOSE [3]: 224 mg/dL
- PHOSPHORUS [3]: 13.23 mg/dL
- POTASSIUM [3]: 6.93 MEQ/L
- SODIUM [3]: 148.67 MEQ/L
- TOTAL BILIRUBIN [3]: 0.4 mg/dL
- TOTAL PROTEIN [3]: 6.7 G/DL
- BASOPHIL [4]: 1.4%
- EOSINOPHIL [4]: 0.3%
- ERYTHROCYTE COUNT [4]: 7.37 x10E6/uL
- HEMATOCRIT [4]: 44.93%
- HEMOGLOBIN [4]: 14.13 G/DL
- LEUKOCYTE COUNT [4]: 11.7 x10E3/uL
- LYMPHOCYTE [4]: 81.47%
- MEAN CORPUSCULAR HEMOGLOBIN [4]: 19.27 pg
- MEAN CORPUSCULAR HEMOGLOBIN CONCENTRATION [4]: 31.5 G/DL
- MEAN CORPUSCULAR VOLUME [4]: 61.2 fL
- MONOCYTE [4]: 2.4%
- NEUTROPHIL [4]: 13.53%
- PLATELET COUNT [4]: 1353.33 x10E3/uL
- ALANINE AMINOTRANSFERASE [4]: 35.67 u/L
- ALBUMIN [4]: 3.57 G/DL
- ALKALINE PHOSPHATASE [4]: 391.67 u/L
- ASPARTATE AMINOTRANSFERASE [4]: 57.67 u/L
- BLOOD UREA NITROGEN [4]: 12.67 mg/dL
- CHLORIDE [4]: 103 MEQ/L
- CHOLESTEROL [4]: 66.33 mg/dL
- CREATINE PHOSPHOKINASE [4]: 131.67 u/L
- CREATININE [4]: 0.57 mg/dL
- GLUCOSE [4]: 185.67 mg/dL
- PHOSPHORUS [4]: 12.77 mg/dL
- POTASSIUM [4]: 6.73 MEQ/L
- SODIUM [4]: 148.33 MEQ/L
- TOTAL BILIRUBIN [4]: 0.3 mg/dL
- TOTAL PROTEIN [4]: 6.23 G/DL
